Assays:
TLR3 signal = experiment: Poly(I:C)-activated TLR3 signaling in RAW264.7 cells; assay type: cell-based, mouse; settings: Poly-IC 25 μg/ml; 24 hrs; RAW264.7
[1] = system: LPS-activated TLR4 signal; experiment: LPS-activated TLR4 signaling in RAW264.7 cells (immunoblotting); assay type: cell-based, mouse
Procedure: Cells and reagents. Mouse monocyte macrophage ceils (RAW264.7) that innately express the TLR4 receptor were obtained from American Type Culture Collection (Manassas, Va., USA). The cells were grown in Dulbecco's modified Eagle's medium (DMEM) (Gibco; Gaithersburg, Md., USA) supplemented with 10% fetal bovine serum (FBS, Gemini, West Sacramento, Calif., USA), 1% penicillin/streptomycin 100× (Gibco) at 37° C. in a 5% CO2 humidified atmosphere. The TLR4-specific ligand IPS was purchased from Sigma-Aldrich (St. Louis, Mo., USA) (Cat. #L3024) and added to the cultures (1 μg/ml) 24 hrs before cell collection.
Immunoblotting. The assay used for RAW264.7 cell lysates and co-immunoprecipitation was as previously described (Aurelian et al, 2016; June et al, 2015; Liu et al, 2011). RAW246.7 cells grown on T-75 flasks (n=5 flasks/group) were lysed with radioimmunoprecipitation (RIPA) buffer [20 mM Tris-HCl (pH 7.4), […], 1% Nonidet P-40 (Sigma, St. Louis, Mo., USA), 0.1% SDS (sodium dodecyl sulfate), 0.5% sodium deoxycholate] supplemented with protease and phosphatase inhibitor cocktails (Sigma). The total protein was determined by the bicinchoninic acid assay (BCA, Thermo Fisher Scientific, Waltham, Mass., USA, Cat. #23228 and Cat. #1859078). The proteins (100 μg/lane) were resolved by SDS-polyacrylamide gel electrophoresis using freshly prepared 16×18 cm gels and transferred to polyvinylidene fluoride membranes (PVDF, Bio-Rad, Cat. #162-0177). Blots were blocked with 5% Blotting-Grade Blocker (Bio-Rad, Cat. #1706404; for non-phosphorylated primary antibodies) or 5% BSA (for phosphorylated primary antibodies) for 2 hrs at room temperature (RT) and exposed to primary antibody overnight (4° C.), followed by horseradish peroxidase-labeled secondary antibodies for 1 h (room temp), immunoreactive bands were visualized with the Plus-ECL kit reagents (Perkin Elmer, Waltham, Mass., USA, Cat. #NEL105001EA) followed by exposure to high-performance chemiluminescence film (Hyperfilm ECL; Amersham). Quantitation was by densitometric scanning with a Bio-Rad GS-700 imaging densitometer. Blots were stripped and re-probed with different primary antibodies 3-5 times. Each densitometric measurement was divided by the corresponding β-Actin densitometric measurement and the results [n=5/group] are expressed as the mean β-Actin-adjusted densitometric units±SEM.
To examine whether the neurosteroids inhibit the LPS-activated TLR4 signal, RAW264.7 cells were treated with IPS (1 μg/mi; 24 hrs) in the absence or presence of 3α,5α-THP (0.5 μM, 1 μM) or pregnenolone (0.5 μM, 1 μM), and ceil extracts were assayed for expression of MyD88-dependent pathway members, by immunoblotting with antibodies to pTAK1, monocyte chemotactic protein (MCP-1), TRAF6, TLR4, and transcription factor NFκB p50 (Chattopadhyay S, et al. (2014). Cytokine Growth Factor Rev 25(5): 533-541; Irie T, et al. (2000). FEBS Lett 467(2-3): […]; Lu Y C, et al. (2008). Cytokine 42(2): 145-151).
Because the neurosteroids had relatively little effect on NFκB p50, the possibility that inhibition of other transcription factors and proinflammatory responses may be involved was considered. RAW246.7 ceils were treated as described above and protein extracts were immunoblotted with antibodies to phospho-NF-κB p65, pCREB, the proinflammatory cytokine tumor necrosis factor alpha (TNFα), and high mobility group box-1 (HMGB1), a highly conserved non-histone chromosomal protein, the translocation of which from the intra- to extra-cellular environment is a critical event in inflammatory responses. Indeed, HMGB1 is currently recognized as a cytokine secreted from activated macrophages and other inflammatory cells during the innate immune response and if is believed to function as a TLR4 ligand. […]

[2] = system: innately activated TLR4 signal in P rat VTA; experiment: TLR4 signaling in P rat VTA after systemic neurosteroid (immunoblot, MCP-1 ELISA); assay type: in vivo; settings: 15 mg/kg IP, P rats
Procedure: Immunoblotting for whole VTA lysates was done as previously described (Carlson et al, 2013). Briefly, VTA micropunches (1 mm thick) were lysed with CelLytic MT (dialyzable mild detergent, bicine, and 150 mM NaCl; Sigma-Aldrich) and protease and phosphatase inhibitor cocktail according to the manufacturer's instructions. Total protein was determined by the BCA assay. The proteins (10 μg/lane) were resolved by NuPAGE™ 4-12% Bis-Tris Midi Protein Gel (Thermo Fisher, Waltham, Mass.) electrophoresis and transferred using the iBlot 2 Dry Blotting System (Thermo Fisher, Waltham, Mass.). Blots were then exposed to an antibody for β-actin for normalization. Proteins were detected with enhanced chemilumenescence (GE Healthcare, Amersham, UK). Membranes were exposed to film under non-saturating conditions. Densitometric analysis was conducted using NIH Image 1.57.
Animals. Selectively bred, but alcohol naïve Alcohol-preferring (P) rats (male, 3-4 months old; 250-550 g) (n=7-9/group) were obtained from the Alcohol Research Center, Indiana University School of Medicine, Animals were double housed in Plexiglas cages containing corn cob bedding and food and water was available ad libitum. The colony room was maintained on a normal 12 hr light-dark cycle (light onset at 0700 hr). Procedures followed National Institutes of Health Guidelines under UNC institutional Animal Care and Use Committee approved protocols at University of North Carolina School of Medicine. Rats were habituated to handling for 7 days prior to administration of 3α,5α-THP (15 mg/kg, IP), pregnenolone (75 mg/kg, IP), 3α,5α-THDOC (15 mg/kg, IP), or vehicle (45% w/v 2-hydroxypropyl-p-cyclodextrin) and returned to their home cage. Rats were sacrificed after 45 minutes and the brain was removed and frozen at −80° C. until VTA micropunches were collected from 1 mm cryostat brain sections. This time point was selected because 3α,5α-THP is rapidly metabolized in vivo (Purdy et al, 1990), but has behavioral and pharmacological activity at this time point (Crawley et al, 1986).
ELISA. Brain tissue micropunches were lysed with Cellyte MT and the extracts were assayed for protein content by the BCA procedure (Pierce) and for MCP-1 using the rat MCP-1 ELISA kit (Raybiotech—ERC-MCP-1-CL; Norcross, Ga., USA) or for fracktalkine using the rat fractalkine ELISA kit (Raybiotech—ERC-CX3CL1-CL; Norcross, Ga., USA) as per manufacturer's instructions.
Since the neurosteroids inhibited the TLR4 activation signal in cultured macrophage cells, experiments were conducted to determine whether this also occurs in the brain. Selectively bred P rats that have an innately activated TLR4 signal in the VTA (Liu J, et al. (2011). Proc Natl Acad Sci USA 108(11): 4465-4470), were administered 3α,5α-THP (15 mg/kg, IP) or pregnenolone (75 mg/kg, IP), sacrificed after 45 minutes and examined for TLR4 signaling using parallel measures. […] 3α,5α-THP administration reduced the levels of MCP-1 by 20±9% (p<0.05), TRAF6 by 19±3% (p<0.0001), and CRF by 28±9% (p<0.01), with no effect on TLR4 protein expression (FIG. 4A). Pregnenolone administration had no effect on TRAF6, CRF, or TLR4.

TLR7 signal = experiment: Imiquimod-activated TLR7 signaling in RAW264.7 cells; assay type: cell-based, mouse; settings: imiquimod 1 μg/ml for 24 hours, RAW264.7
Procedure: Because multiple TLRs signal through MD-2, […] and MyD-88, the specificity of the neurosteroid 3α,5α-THP on TLR2, TLRS and TLR7 signal activation was examined in RAW264.7 ceils (FIG. 7). Pam3Cys (10 μg/ml) activated TLR2 signaling, evidenced by increases in pCREB, pERK1/2, TRAF6 and pATF-2, that were sustained for 24 hrs and inhibited by 3α,5α-THP (1 μM) (50-60% compared to vehicle).

[3] = 0.5 μM or 1 μM (concentration not assigned), RAW264.7
[4] = 1.0 μM, LPS 1 μg/ml, 24 hrs, RAW264.7

## Poly-IC
TLR3 signal
  increase in IP-10 (CXCL10) expression: 90%

## C[C@]12CC[C@@H](O)C[C@@H]1CC[C@@H]1[C@@H]2CC[C@]2(C)[C@@H](C(=O)CO)CC[C@@H]12 [3α,5α-THDOC, (3α,5α)3,21-dihydroxypregnan-20-one]
[1]; [3]
  inhibition of LPS-activated MCP-1: approximately 90%
  inhibition of LPS-activated NFκB p50: 30-40%
[1]; 0.5 μM or 1 μM, LPS-treated RAW264.7, 24 hrs
  effect on TLR4 expression: did not affect
[1]; 0.5 μM, LPS 1 μg/ml, 24 hrs, RAW264.7
  enhancement of LPS-induced TRAF6: 51.6±8.3%
[1]; [4]
  enhancement of LPS-induced TRAF6: 16.8±5.7%
  increase of LPS-induced pTAK1: 2 fold
[2]; 45 minutes
  effect on TLR4 protein expression in VTA: No effect
[2]
  increase of CRF levels in VTA: 39±16%
  increase of TRAF6 levels in VTA: 32±12%
[2]; ELISA
  effect on MCP-1 expression in VTA: no effect

## CC(C)Cn1cnc2c(N)nc3ccccc3c21 [imiquimod]
TLR7 signal
  increase in pIRF7: 30%
